{"source": "paper PMC6269559", "about": "“Design, Synthesis and Biological Evaluation of Ketoprofen Conjugated To RGD/NGR for Targeted Cancer Therapy” (Iranian Journal of Pharmaceutical Research : IJPR, 2018)", "assay_type_in_all_cases": "cell-based", "key": {"[1]": {"tested_on": "MCF-7", "experiment": "MTT cytotoxicity, MCF-7", "settings": "48 h; for Inhibitory % values, MCF-7: at 50 µM", "procedure": "(§1) In order to evaluate the cytotoxic activity of the synthesis compounds, five cell lines: A2780 (low αVβ3), OVCAR-3 (high αVβ3), SKOV-3 (low CD13), HT-1080 (high CD13) and MCF-7 and fibroblast cell were selected. A2780 and MCF-7 are both cancer cells, but A2780 is […] cell line. Three concentrations of products were prepared and were evaluated after 48 h by using MTT method. Therefore cells cultured in culture media (RPMI1640) at 37 °C under 5% CO2 supplemented with 10% fetal bovine serum (FBS), 100 U/mL penicillin and 100 μg/mL streptomycin. Nearly 10^4 cells were seeded into 96-well plates and were grown for 24 h in incubator. Compounds and doxorubicin added to wells, cells were incubated at 37 °C for 48 h. Cells without any adding of compound were used as negative control, Doxorubicin was used as positive control and DMSO as the solvent of the test compounds. After 48 h, 10 μL of MTT (5 mg/mL in PBS) was added at 37 °C for 4 h. The medium with MTT was removed and 100 μL DMSO was added to each well, cover the plate from light, shake it for 5 min, then optical densities were read at 570 nm with a reference wavelength of 630 nm as background using a spectrophotometer plate reader (Infinite® M200, TECAN)."}, "[2]": {"tested_on": "Fibroblast", "experiment": "MTT cytotoxicity, fibroblast", "settings": "100 µM, 48 h", "procedure": "as §1"}, "[3]": {"tested_on": "A2780 (low αVβ3)", "experiment": "MTT cytotoxicity, A2780", "settings": "48 h; for Inhibitory % values, A2780: 100 µM", "procedure": "as §1"}, "[4]": {"tested_on": "HT-1080 (high CD13)", "experiment": "MTT cytotoxicity, HT-1080", "settings": "48 h; for Inhibitory % values, HT-1080: 100 µM", "procedure": "as §1"}, "[5]": {"tested_on": "OVCAR-3 (high αVβ3)", "experiment": "MTT cytotoxicity, OVCAR-3", "settings": "48 h; for Inhibitory % values, OVCAR3: 100 µM", "procedure": "as §1"}, "[6]": {"tested_on": "SKOV-3 (low CD13)", "experiment": "MTT cytotoxicity, SKOV-3", "settings": "48 h; for Inhibitory % values, SKOV-3: 100 µM", "procedure": "as §1"}}, "data": [{"compound": "Asparagine-Glycine-Arginine [NGR]", "values": [{"measurement": "Inhibitory % values, MCF-7", "setting": "[1]", "value": "No inhibition"}, {"measurement": "Inhibitory % values, Fibroblast", "setting": "[2]", "value": "No inhibition"}, {"measurement": "Inhibitory % values, A2780", "setting": "[3]", "value": "6 ± 1.5", "unit": "%"}, {"measurement": "Inhibitory % values, HT-1080", "setting": "[4]", "value": "6.5 ± 0.5", "unit": "%"}, {"measurement": "Inhibitory % values, OVCAR3", "setting": "[5]", "value": "No inhibition"}, {"measurement": "Inhibitory % values, SKOV-3", "setting": "[6]", "value": "No inhibition"}]}, {"compound": "CC(C(=O)O)c1cccc(C(=O)c2ccccc2)c1", "note": "(stereo not shown) [Ketoprofen]", "values": [{"measurement": "Inhibitory % values, Fibroblast", "setting": "[2]", "value": "No inhibition"}, {"measurement": "Inhibitory % values, A2780", "setting": "[3]", "value": "No inhibition"}, {"measurement": "inhibition at 100 µM", "setting": "[4]; Homo sapiens, HT-1080, 100 µM, read-out: Inhibitory % values, HT-1080", "value": "9.25 ± 1.3", "unit": "%"}, {"measurement": "Inhibitory % values, OVCAR3", "setting": "[5]", "value": "No inhibition"}, {"measurement": "inhibition at 100 µM", "setting": "[6]; Homo sapiens, SK-OV-3, 100 µM, read-out: Inhibitory % values, SKOV-3", "value": "14 ± 4.7", "unit": "%"}]}, {"compound": "COc1cccc2c1C(=O)c1c(O)c3c(c(O)c1C2=O)C[C@@](O)(C(=O)CO)C[C@@H]3O[C@H]1C[C@H](N)[C@H](O)[C@H](C)O1", "note": "[Doxorubicin, reference compound]", "values": [{"measurement": "inhibition at 5 µM", "setting": "[1]; Homo sapiens, MCF7, at 5 µM (positive control), read-out: Inhibitory % values, MCF-7", "value": "38 ± 0.53", "unit": "%"}, {"measurement": "inhibition at 5 µM", "setting": "[3]; Homo sapiens, A2780, at 5 µM (positive control), read-out: Inhibitory % values, A2780", "value": "65 ± 1.2", "unit": "%"}, {"measurement": "inhibition at 5 µM", "setting": "[4]; Homo sapiens, HT-1080, at 5 µM (positive control), read-out: Inhibitory % values, HT-1080", "value": "26.7 ± 4.8", "unit": "%"}, {"measurement": "inhibition at 5 µM", "setting": "[5]; Homo sapiens, OVCAR-3, at 5 µM (positive control), read-out: Inhibitory % values, OVCAR3", "value": "45.2 ± 1.25", "unit": "%"}, {"measurement": "inhibition at 5 µM", "setting": "[6]; Homo sapiens, SK-OV-3, at 5 µM (positive control), read-out: Inhibitory % values, SKOV-3", "value": "29.5 ± 2.5", "unit": "%"}]}, {"compound": "Arginine-Glycine-Aspartic acid [RGD]", "values": [{"measurement": "Inhibitory % values, MCF-7", "setting": "[1]", "value": "No inhibition"}, {"measurement": "Inhibitory % values, Fibroblast", "setting": "[2]", "value": "No inhibition"}, {"measurement": "Inhibitory % values, A2780", "setting": "[3]", "value": "10 ± 2.2", "unit": "%"}, {"measurement": "Inhibitory % values, HT-1080", "setting": "[4]", "value": "No inhibition"}, {"measurement": "Inhibitory % values, OVCAR3", "setting": "[5]", "value": "No inhibition"}, {"measurement": "Inhibitory % values, SKOV-3", "setting": "[6]", "value": "9.5 ± 0.5", "unit": "%"}]}]}
